Columns and labels:
MCF7 = test: NCI-60 SRB screen: breast cancer MCF7; type: cell-based; details: Homo sapiens, 48 h, MCF7
OVCAR-4 = test: NCI-60 SRB screen: ovarian cancer OVCAR-4; type: cell-based; details: Homo sapiens; OVCAR-4; five concentrations, 48 h, SRB; read-out: GI50
SK-MEL-28 = test: NCI-60 SRB screen: melanoma SK-MEL-28; type: cell-based, human; details: SK-MEL-28
MALME-3M = test: NCI-60 SRB screen: melanoma MALME-3M; type: cell-based, human; details: MALME-3M
NCI-H322M = test: NCI-60 SRB screen: non-small cell lung cancer NCI-H322M; type: cell-based, human
SR = test: NCI-60 SRB screen: leukemia SR; type: cell-based; details: Homo sapiens, 48 h
T-47D = test: NCI-60 SRB screen: breast cancer T-47D; type: cell-based, human; details: T-47D
MOLT-4 = test: NCI-60 SRB screen: leukemia MOLT-4; type: cell-based; details: Homo sapiens, 48 h, MOLT-4
M14 = test: NCI-60 SRB screen: melanoma M14; type: cell-based, human; details: M14
HOP-92 = test: NCI-60 SRB screen: non-small cell lung cancer HOP-92; type: cell-based, human; details: HOP-92
OVCAR-8 = test: NCI-60 SRB screen: ovarian cancer OVCAR-8; type: cell-based, human; details: OVCAR-8
Prostate cancer subpanel = test: NCI-60 screen, subpanel Prostate cancer
HOP-62 = test: NCI-60 SRB screen: non-small cell lung cancer HOP-62; type: cell-based, human; details: HOP-62
HS 578T = test: NCI-60 SRB screen: breast cancer HS 578T; type: cell-based, human; details: HS 578T
SF-295 = test: NCI-60 SRB screen: CNS cancer SF-295; type: cell-based, human; details: SF-295
SN12C = test: NCI-60 SRB screen: renal cancer SN12C; type: cell-based, human
RPMI-8226 = test: NCI-60 SRB screen: leukemia RPMI-8226; type: cell-based; details: Homo sapiens, 48 h, RPMI-8226
EKVX = test: NCI-60 SRB screen: non-small cell lung cancer EKVX; type: cell-based, human
SNB-75 = test: NCI-60 SRB screen: CNS cancer SNB-75; type: cell-based, human; details: SNB-75
A498 = test: NCI-60 SRB screen: renal cancer A498; type: cell-based, human; details: A498
Ovarian Cancer subpanel = test: NCI-60 screen, subpanel Ovarian Cancer
CCRF-CEM = test: NCI-60 SRB screen: leukemia CCRF-CEM; type: cell-based; details: Homo sapiens, 48 h
DU-145 = test: NCI-60 SRB screen: prostate cancer DU-145; type: cell-based, human; details: DU-145
CAKI-1 = test: NCI-60 SRB screen: renal cancer CAKI-1; type: cell-based, human; details: CAKI-1
SK-OV-3 = test: NCI-60 SRB screen: ovarian cancer SK-OV-3; type: cell-based, human; details: SK-OV-3
UACC-257 = test: NCI-60 SRB screen: melanoma UACC-257; type: cell-based, human; details: UACC-257
OVCAR-5 = test: NCI-60 SRB screen: ovarian cancer OVCAR-5; type: cell-based, human; details: OVCAR-5
RXF 393 = test: NCI-60 SRB screen: renal cancer RXF 393; type: cell-based, human; details: RXF 393
TK-10 = test: NCI-60 SRB screen: renal cancer TK-10; type: cell-based, human; details: TK-10
Colon Cancer subpanel = test: NCI-60 screen, subpanel Colon Cancer
BT-549 = test: NCI-60 SRB screen: breast cancer BT-549; type: cell-based, human; details: BT-549
786-0 = test: NCI-60 SRB screen: renal cancer 786-0; type: cell-based, human; details: 786-0
NCI-H226 = test: NCI-60 SRB screen: non-small cell lung cancer NCI-H226; type: cell-based, human; details: NCI-H226
NCI/ADR-RES = test: NCI-60 SRB screen: ovarian cancer NCI/ADR-RES; type: cell-based, human
U251 = test: NCI-60 SRB screen: CNS cancer U251; type: cell-based; details: Homo sapiens, U251
[1] = single dose 10 µM, read-out: Percentage Cell Growth
[2] = five concentrations, SRB, read-out: GI50
[3] = Homo sapiens, five concentrations, 48 h, SRB, read-out: GI50

For C=C(C)[C@@H]1CC[C@]2(C(=O)NCCNCCNCCN)CC[C@]3(C)[C@H](CC[C@@H]4[C@@]5(C)CCC(=O)C(C)(C)[C@@H]5CC[C@]43C)[C@@H]12 [Compound 11], the activity at 10 µM (MCF7; [1]) was -58%, the GI50 (MCF7; [2]) was 7.38 µM and the GI50 (OVCAR-4) was 7.39 µM. For the same compound, the GI50 (SK-MEL-28; [3]) was 8.49 µM, the “Percentage Cell Growth” value (SK-MEL-28; single dose 10 µM) was −73.91% and the GI50 (MALME-3M; [3]) was 7.4 µM. The “Percentage Cell Growth” value (MALME-3M; single dose 10 µM) was −72.82%, the GI50 (NCI-H322M; [3]) was 7.32 µM and the “Percentage Cell Growth” value (NCI-H322M; single dose 10 µM) was −81.08%. The activity at 10 µM (SR; [1]) was 4.96%, the GI50 (SR; [2]) was 5.91 µM and the GI50 (T-47D; Homo sapiens, T47D, five concentrations, 48 h, SRB, read-out: GI50) was 7.52 µM. For the same compound, the “Percentage Cell Growth” value (T-47D; single dose 10 µM) was −4.36%, the activity at 10 µM (MOLT-4; [1]) was -16.3% and the GI50 (MOLT-4; [2]) was 6.96 µM. The GI50 (M14; [3]) was 8.38 µM, the “Percentage Cell Growth” value (M14; single dose 10 µM) was −62.82% and the “Percentage Cell Growth” value (HOP-92; single dose 10 µM) was −65.19%. For the same compound, the GI50 (HOP-92; [3]) was 2.93 µM, the GI50 (OVCAR-8; [3]) was 8.41 µM and the “Percentage Cell Growth” value (OVCAR-8; single dose 10 µM) was −75.03%. The “MID b, average sensitivity of all cell line of particular subpanel” value (shortened to “MID b, average sensitivity”) (Prostate cancer subpanel) was 6.87 µM, the “Selectivity, ratio MID a: MID b” value (Prostate cancer subpanel) was 1.33 and the “Percentage Cell Growth” value (HOP-62; single dose 10 µM) was 43.09%. The GI50 (HOP-62; [3]) was 7.91 µM, the “Percentage Cell Growth” value (HS 578T; single dose 10 µM) was 47.76% and the GI50 (HS 578T; [3]) was 8.3 µM. The GI50 (SF-295; [3]) was 9.42 µM, the “Percentage Cell Growth” value (SF-295; single dose 10 µM) was −54.47% and the GI50 (SN12C; [3]) was 7.56 µM. The “Percentage Cell Growth” value (SN12C; single dose 10 µM) was −88.48%, the activity at 10 µM (RPMI-8226; [1]) was -30.7% and the GI50 (RPMI-8226; [2]) was 6.78 µM. The GI50 (EKVX; [3]) was 7.34 µM, the “Percentage Cell Growth” value (EKVX; single dose 10 µM) was 11.37% and the GI50 (SNB-75; [3]) was 6.26 µM. For the same compound, the “Percentage Cell Growth” value (SNB-75; single dose 10 µM) was −41.55%, the “Percentage Cell Growth” value (A498; single dose 10 µM) was 80.81% and the GI50 (A498; [3]) was 42.6 µM. The “MID b, average sensitivity” value (Ovarian Cancer subpanel) was 8.24 µM, the “Selectivity, ratio MID a: MID b” value (Ovarian Cancer subpanel) was 1.11 and the activity at 10 µM (CCRF-CEM; [1]) was -11.3%. The GI50 (CCRF-CEM; [2]) was 9.65 µM, the “Percentage Cell Growth” value (DU-145; single dose 10 µM) was −56.67% and the GI50 (DU-145; [3]) was 7.47 µM. For the same compound, the “Percentage Cell Growth” value (CAKI-1; single dose 10 µM) was −8.79%, the GI50 (CAKI-1; [3]) was 5.87 µM and the GI50 (SK-OV-3; [3]) was 10.6 µM. For the same compound, the “Percentage Cell Growth” value (SK-OV-3; single dose 10 µM) was 70.49%, the GI50 (UACC-257; [3]) was 7.91 µM and the “Percentage Cell Growth” value (UACC-257; single dose 10 µM) was −10.66%. For the same compound, the GI50 (OVCAR-5; [3]) was 8.78 µM, the “Percentage Cell Growth” value (OVCAR-5; single dose 10 µM) was −44.11% and the GI50 (RXF 393; [3]) was 5.6 µM. For the same compound, the “Percentage Cell Growth” value (RXF 393; single dose 10 µM) was −71.88%, the GI50 (TK-10; [3]) was 10.1 µM and the “Percentage Cell Growth” value (TK-10; single dose 10 µM) was −77.68%. The “MID b, average sensitivity” value (Colon Cancer subpanel) was 7.68 µM, the “Selectivity, ratio MID a: MID b” value (Colon Cancer subpanel) was 1.19 and the “Percentage Cell Growth” value (BT-549; single dose 10 µM) was 58.31%. For the same compound, the GI50 (BT-549; [3]) was 8.91 µM, the “Percentage Cell Growth” value (786-0; single dose 10 µM) was −84.46% and the GI50 (786-0; [3]) was 7.8 µM. For the same compound, the GI50 (NCI-H226; [3]) was 7.74 µM, the “Percentage Cell Growth” value (NCI-H226; single dose 10 µM) was 74.30% and the GI50 (NCI/ADR-RES; [3]) was 8.41 µM. For the same compound, the “Percentage Cell Growth” value (NCI/ADR-RES; single dose 10 µM) was −73.33%, the activity at 10 µM (U251; U-251, 48 h, single dose 10 µM, read-out: Percentage Cell Growth) was -81.8% and the GI50 (U251; U-251, five concentrations, 48 h, SRB, read-out: GI50) was 7.34 µM.
